From ChEMBL document CHEMBL6103573, “Discovery of novel thienopyridine indole derivatives as inhibitors of tubulin polymerization targeting the colchicine-binding site with potent anticancer activities” (Eur J Med Chem, 2025)
The source made the active and inactive calls. No cut-off for these calls is given here.

Key:
[1] = tested on: MGC-803; test: Induction of cell cycle arrest at G2 phase in human MGC-803 cells assessed as increase in p-Histone H3 level at 0.25 to 2.0 nmol/L measured after 48 hrs by Western blot analysis; format: functional, cell-based; conditions: dose 0.25-2 nmol/L
[2] = tested on: MGC-803; test: Induction of cell cycle arrest in human MGC-803 cells assessed as downregulation of Cdc2 phosphorylation at Tyr15 residue measured after 48 hrs by Western blot analysis; format: functional, cell-based; conditions: dose 0.25-2 nmol/L
[3] = target: T1, Tubulin (Homo sapiens) (UniProt P68371+Q9H4B7+P0DPH7+P68366+Q13509+Q71U36+P04350+Q3ZCM7+P07437+P68363+Q9BQE3+Q6PEY2+Q13885+Q9BVA1+Q9BUF5); test: Disruption of microtubule network in human HGC-27 cells assessed as disruption of mitosis at 0.25 to 2.0 nmol/L incubated for 24 hrs by DAPI staining based fluorescence microscopic analysis; format: cell-based; conditions: dose 0.25-2 nmol/L
[4] = tested on: HGC-27; test: Induction of apoptosis in human HGC-27 cells assessed as downregulation of Bcl-2 expression incubated for 48 hrs by Western blotting analysis; format: functional, cell-based; conditions: dose 0.25-2 nmol/L
[5] = tested on: HGC-27; test: Induction of apoptosis in human HGC-27 cells assessed as early apoptotic cells at 1.5 nmol/L incubated for 48 hrs by Annexin V-FITC/propidium iodide staining based flow cytometry analysis (reference value: 2.04 %); format: functional
[6] = target: T1, Tubulin (Homo sapiens); test: Disruption of microtubule network in human MGC-803 cells assessed as irregular cellular morphology at 0.25 to 2.0 nmol/L incubated for 24 hrs by DAPI staining based fluorescence microscopic analysis; format: cell-based; conditions: dose 0.25-2 nmol/L
[7] = tested on: SGC-7901; test: Antiproliferative activity against human SGC-7901 cells assessed as inhibition of cell proliferation incubated for 48 hrs by MTT assay; format: functional, cell-based; conditions: SGC-7901, 48 h
[8] = tested on: MGC-803; test: Induction of apoptosis in human MGC-803 cells assessed as early apoptotic cells at 2.0 nmol/L incubated for 48 hrs by Annexin V-FITC/propidium iodide staining based flow cytometry analysis (reference value: 0.83 %); format: functional
[9] = tested on: HGC-27; test: Anti-migratory activity against human HGC-27 cells assessed as reduction in wound healing area measured after 24 hrs by wound healing assay; format: functional, cell-based; conditions: dose 0.5-1 nmol/L
[10] = tested on: MGC-803; test: Induction of cell cycle arrest in human MGC-803 cells assessed as downregulation of Wee1 level measured after 48 hrs by Western blot analysis; format: functional, cell-based; conditions: dose 0.25-2 nmol/L
[11] = tested on: MGC-803; test: Induction of cell cycle arrest in human MGC-803 cells assessed as accumulation of cells at G2/M phase at 2 nmol/L incubated for 24 hrs by RNase A/propidium iodide staining based flow cytometric analysis relative to control; format: functional
[12] = tested on: HGC-27; test: Induction of cell cycle arrest at G2 phase in human HGC-27 cells assessed as downregulation of Cyclin B1 level at 0.25 to 2.0 nmol/L measured after 48 hrs by Western blot analysis; format: functional, cell-based; conditions: dose 0.25-2 nmol/L
[13] = tested on: HUVEC; test: Anti-angiogenesis activity in HUVEC cells assessed as reduction in cell viability incubated from 12 to 48 hrs by MTT assay; format: functional, cell-based; conditions: Homo sapiens, dose < 2.0 nmol/L, time 12-48 hrs
[14] = tested on: MGC-803; test: Anti-migratory activity against human MGC-803 cells assessed as reduction in wound healing area measured after 24 hrs by wound healing assay; format: functional, cell-based; conditions: dose 0.5-1 nmol/L
[15] = tested on: MGC-803; test: Induction of apoptosis in human MGC-803 cells assessed as nuclei shrinkage at 0.25 to 2.0 nmol/L incubated for 48 hrs by DAPI staining based analysis; format: functional, cell-based; conditions: dose 0.25-2 nmol/L
[16] = tested on: MGC-803; test: Antitumor activity against human MGC-803 cells xenografted in female BALB/c-nu nude mouse assessed as increase in p-Histone H3 level in tumor at 5 mg/kg, po administrated every other day for 11 times and measured after 21 days by immunohistochemical analysis; format: functional, organism-based; conditions: time 21.0 day
[17] = tested on: HGC-27; test: Induction of apoptosis in human HGC-27 cells assessed as late apoptotic cells at 1.5 nmol/L incubated for 48 hrs by Annexin V-FITC/propidium iodide staining based flow cytometry analysis (reference value: 3.70 %); format: functional
[18] = tested on: HGC-27; test: Induction of apoptosis in human HGC-27 cells assessed as total apoptotic rate at 2 nmol/L incubated for 48 hrs by Annexin V-FITC/propidium iodide staining based flow cytometry analysis relative to control; format: functional
[19] = tested on: HGC-27; test: Induction of apoptosis in human HGC-27 cells assessed as increase in total apoptotic rate at 2 nmol/L incubated for 48 hrs by Annexin V-FITC/propidium iodide staining based flow cytometry analysis relative to control; format: functional
[20] = tested on: MGC-803; test: Induction of apoptosis in human MGC-803 cells incubated for 48 hrs by Annexin V-FITC/propidium iodide staining based flow cytometry analysis; format: functional, cell-based; conditions: dose 0.25-2 nmol/L
[21] = tested on: MGC-803; test: Antiproliferative activity against human MGC-803 cells assessed as survival rate at 2 nmol/L measured after 48 hrs by MTT assay relative to control; format: functional; conditions: read-out: Survival
[22] = tested on: MGC-803; test: Induction of cell cycle arrest in human MGC-803 cells assessed as downregulation of Cdc25c level measured after 48 hrs by Western blot analysis; format: functional, cell-based; conditions: dose 0.25-2 nmol/L
[23] = tested on: MGC-803; test: Induction of apoptosis in human MGC-803 cells assessed as early apoptotic cells at 1.5 nmol/L incubated for 48 hrs by Annexin V-FITC/propidium iodide staining based flow cytometry analysis (reference value: 0.83 %); format: functional
[24] = tested on: HGC-27; test: Induction of apoptosis in human HGC-27 cells incubated for 48 hrs by Annexin V-FITC/propidium iodide staining based flow cytometry analysis; format: functional, cell-based; conditions: dose 0.25-2 nmol/L
[25] = tested on: MGC-803; test: Antitumor activity against human MGC-803 cells xenografted in female BALB/c-nu nude mouse assessed as increase in apoptotic cells at 5 mg/kg, po administrated every other day for 11 times and measured after 21 days by TUNEL staining based assay; format: functional, organism-based; conditions: time 21.0 day
[26] = tested on: HGC-27; test: Induction of cell cycle arrest at G2 phase in human HGC-27 cells assessed as increase in p-Histone H3 level at 0.25 to 2.0 nmol/L measured after 48 hrs by Western blot analysis; format: functional, cell-based; conditions: dose 0.25-2 nmol/L
[27] = tested on: MGC-803; test: Induction of apoptosis in human MGC-803 cells assessed as cell rupture at 0.25 to 2.0 nmol/L incubated for 48 hrs by bright field microscopic analysis; format: functional, cell-based; conditions: dose 0.25-2 nmol/L
[28] = tested on: MCF7; test: Antiproliferative activity against human MCF7 cells assessed as inhibition of cell proliferation incubated for 48 hrs by MTT assay; format: functional, cell-based; conditions: MCF7, 48 h
[29] = tested on: HGC-27; test: Induction of apoptosis in human HGC-27 cells assessed as late apoptotic cells at 0.25 nmol/L incubated for 48 hrs by Annexin V-FITC/propidium iodide staining based flow cytometry analysis (reference value: 3.70 %); format: functional
[30] = tested on: HGC-27; test: Induction of apoptosis in human HGC-27 cells assessed as cell contraction at 0.25 to 2.0 nmol/L incubated for 48 hrs by bright field microscopic analysis; format: functional, cell-based; conditions: dose 0.25-2 nmol/L
[31] = Toxicity in female BALB/c-nu nude mouse xenografted with human MGC-803 cells assessed as change in liver morphology at 5 mg/kg, po administrated every other day for 11 times and measured after 21 days by hematoxylin and eosin staining based analysis; format: organism-based; conditions: in vivo, 504 h, time 21 day
[32] = tested on: HGC-27; test: Induction of apoptosis in human HGC-27 cells assessed as increase in cleaved Caspase-3 expression at 0.25 to 2.0 nmol/L incubated for 48 hrs by Western blotting analysis; format: functional, cell-based; conditions: dose 0.25-2 nmol/L
[33] = target: T1, Tubulin (Homo sapiens); test: Disruption of microtubule network in human MGC-803 cells assessed as reduction in filamentous microtubule structure formation at 0.25 to 2.0 nmol/L incubated for 24 hrs by DAPI staining based fluorescence microscopic analysis; format: cell-based; conditions: dose 0.25-2 nmol/L
[34] = tested on: HGC-27; test: Antiproliferative activity against human HGC-27 cells by MTT assay; format: functional, cell-based; conditions: dose 0.25-2 nmol/L

Q: What does the source list for `CN(c1ccc2c(ccn2C)c1)c1nc(N2CCCC2)nc2sccc12`?
A: Activity [1]: Active; Activity [2]: Dose-dependent-effect; Activity [3]: Active; Activity [4]: Dose-dependent-effect; Activity [5]: 15.58%; Activity [6]: Active; IC50 [7]: 2.01 nM; Activity [8]: 54.93%; Activity [9]: Dose-dependent-effect; Activity [10]: Dose-dependent-effect; Activity [11]: 28.5%; Activity [12]: Active; Activity [13]: Dose-dependent-effect; Activity [14]: Dose-dependent-effect; Activity [15]: Active; Activity [16]: Active; Activity [17]: 5.22%; Activity [18]: 20%; Activity [19]: 14%; Activity [20]: Dose-dependent-effect; viability at 0.002 µM [21]: 35%; Activity [22]: Dose-dependent-effect; Activity [23]: 43.09%; Activity [24]: Dose-dependent-effect; Activity [25]: Active; Activity [26]: Active; Activity [27]: Active; IC50 [28]: 1.85 nM; Activity [29]: 3.14%; Activity [30]: Active; Activity [31]: Non-toxic; Activity [32]: Active; Activity [33]: Active; Activity [34]: Dose-dependent-effect
